From ChEMBL document CHEMBL1201862, “PubChem BioAssay data set” (2004)
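These data come from cells grown in 96-well plates and exposed to compound for 48 hours at five concentrations. GI50 = concentration required for 50% inhibition of growth.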 Calls of active or inactive are those of the source. Cut-off read from the data, not from the text of the source: active = GI50 up to about 1.1 µM and inactive = higher. Where a SMILES comes first, the peptide text is derived from it. The star is where a group is joined. Boc = CC(C)(C)OC(=O)*; OBn = c1ccc(CO*)cc1

Experiments:
Assay in all cases: growth of human tumour cells (NCI), 48 h
786-0 = system: 786-0
A498 = system: A498
A549 = system: A549
CCRF-CEM = system: CCRF-CEM
EKVX = system: EKVX
HL-60 = system: HL-60
HT-29 = system: HT-29
M14 = system: M14
MDA-MB-435 = system: MDA-MB-435
MDA-N = system: MDA-N
NCI-H23 = system: NCI-H23
OVCAR-4 = system: OVCAR-4
PC-3 = system: PC-3
SK-MEL-28 = system: SK-MEL-28
SK-MEL-5 = system: SK-MEL-5
SK-OV-3 = system: SK-OV-3
SNB-19 = system: SNB-19
T47D = system: T47D
U-251 = system: U-251
ACHN = system: ACHN

| Compound | GI50 (786-0) | GI50 (A498) | GI50 (A549) | GI50 (CCRF-CEM) | GI50 (EKVX) | GI50 (HL-60) | GI50 (HT-29) | GI50 (M14) | GI50 (MDA-MB-435) | GI50 (MDA-N) | GI50 (NCI-H23) | GI50 (OVCAR-4) | GI50 (PC-3) | GI50 (SK-MEL-28) | GI50 (SK-MEL-5) | GI50 (SK-OV-3) | GI50 (SNB-19) | GI50 (T47D) | GI50 (U-251) | GI50 (ACHN) |
| --- | --- | --- | --- | --- | --- | --- | --- | --- | --- | --- | --- | --- | --- | --- | --- | --- | --- | --- | --- | --- |
| CCOC(=O)c1cc(Br)c(-c2onc(C)c2Br)[nH]1 | 21.6 µM (inactive) | 48.2 µM (inactive) | 56.1 µM (inactive) | > 100 µM (inactive) | 27.9 µM (inactive) | > 100 µM (inactive) | > 100 µM (inactive) | 66.2 µM (inactive) | > 100 µM (inactive) | > 100 µM (inactive) | 49.3 µM (inactive) | 88.1 µM (inactive) | > 100 µM (inactive) | > 100 µM (inactive) | 42.1 µM (inactive) | 25.9 µM (inactive) | 24.9 µM (inactive) | > 100 µM (inactive) | 19.1 µM (inactive) | – |
| Cc1c2cccc-2c(OCCOC(=O)n2ccnc2)cc2c1[nH]c1ccccc12 | 3.87 µM (inactive) | 6.52 µM (inactive) | 3.42 µM (inactive) | – | 1.04 µM (active) | 2.12 µM (inactive) | 2.27 µM (inactive) | 3.46 µM (inactive) | 3.12 µM (inactive) | 4.8 µM (inactive) | 2.44 µM (inactive) | 2.32 µM (inactive) | 1.75 µM (inactive) | 2.02 µM (inactive) | 2.42 µM (inactive) | 4.74 µM (inactive) | 2.65 µM (inactive) | 2.49 µM (inactive) | – | 2.56 µM (inactive) |
| CC(=O)Oc1ccc2c3c1O[C@H]1[C@H](O)CC[C@@]4(O)[C@@H](C2)N(C)CC[C@]314 | > 100 µM (inactive) | > 100 µM (inactive) | > 100 µM (inactive) | – | > 100 µM (inactive) | > 100 µM (inactive) | > 100 µM (inactive) | > 100 µM (inactive) | > 100 µM (inactive) | > 100 µM (inactive) | > 100 µM (inactive) | > 100 µM (inactive) | > 100 µM (inactive) | > 100 µM (inactive) | > 100 µM (inactive) | > 100 µM (inactive) | > 100 µM (inactive) | > 100 µM (inactive) | > 100 µM (inactive) | > 100 µM (inactive) |
| CC(NC(=O)C(Cc1ccccc1)NC(=O)C(Cc1ccccc1)NC(=O)OC(C)(C)C)C(=O)OCc1ccccc1 (stereo not drawn) (Boc-Phe-Phe-Ala-OBn; configuration not given here) | > 100 µM (inactive) | > 100 µM (inactive) | > 100 µM (inactive) | 58.3 µM (inactive) | > 100 µM (inactive) | 31.8 µM (inactive) | 75.9 µM (inactive) | 48.4 µM (inactive) | > 100 µM (inactive) | > 100 µM (inactive) | > 100 µM (inactive) | – | 68.7 µM (inactive) | – | 94.2 µM (inactive) | > 100 µM (inactive) | – | > 100 µM (inactive) | 63.7 µM (inactive) | – |
| O=C(O)C1C2CC3C(OC(=O)C31)C2Br (configuration not stated) | > 100 µM (inactive) | > 100 µM (inactive) | > 100 µM (inactive) | > 100 µM (inactive) | > 100 µM (inactive) | – | > 100 µM (inactive) | > 100 µM (inactive) | > 100 µM (inactive) | > 100 µM (inactive) | > 100 µM (inactive) | > 100 µM (inactive) | > 100 µM (inactive) | > 100 µM (inactive) | > 100 µM (inactive) | > 100 µM (inactive) | > 100 µM (inactive) | > 100 µM (inactive) | > 100 µM (inactive) | > 100 µM (inactive) |
| COc1cc(COC(=O)N2CCC2C(=O)O)c([N+](=O)[O-])cc1OC (configuration not stated) | > 100 µM (inactive) | > 100 µM (inactive) | > 100 µM (inactive) | > 100 µM (inactive) | > 100 µM (inactive) | > 100 µM (inactive) | > 100 µM (inactive) | > 100 µM (inactive) | > 100 µM (inactive) | > 100 µM (inactive) | > 100 µM (inactive) | – | > 100 µM (inactive) | > 100 µM (inactive) | > 100 µM (inactive) | > 100 µM (inactive) | > 100 µM (inactive) | > 100 µM (inactive) | > 100 µM (inactive) | > 100 µM (inactive) |
| O=S1(=O)c2ccccc2C(Nc2ccccc2)N1c1ccccc1 (configuration not stated) | > 100 µM (inactive) | > 100 µM (inactive) | 56.8 µM (inactive) | 63.4 µM (inactive) | > 100 µM (inactive) | 85.7 µM (inactive) | > 100 µM (inactive) | – | 45.1 µM (inactive) | > 100 µM (inactive) | > 100 µM (inactive) | 67.6 µM (inactive) | > 100 µM (inactive) | > 100 µM (inactive) | > 100 µM (inactive) | > 100 µM (inactive) | – | 24.5 µM (inactive) | 61 µM (inactive) | > 100 µM (inactive) |
| CN(C(=O)[C@H](NC(=O)OCc1ccccc1)c1ccccc1)C1CCCCC1N1CCCC1 (some centres not stated) | 95.1 µM (inactive) | 89.9 µM (inactive) | > 100 µM (inactive) | 38.8 µM (inactive) | > 100 µM (inactive) | – | 38.1 µM (inactive) | 23.4 µM (inactive) | 70.8 µM (inactive) | > 100 µM (inactive) | > 100 µM (inactive) | 51.4 µM (inactive) | 69.7 µM (inactive) | > 100 µM (inactive) | 16 µM (inactive) | > 100 µM (inactive) | > 100 µM (inactive) | > 100 µM (inactive) | > 100 µM (inactive) | > 100 µM (inactive) |
| O=c1oc2ccc([N+](=O)[O-])cc2cc1Br | > 100 µM (inactive) | > 100 µM (inactive) | > 100 µM (inactive) | 57.5 µM (inactive) | > 100 µM (inactive) | 39 µM (inactive) | > 100 µM (inactive) | 35.7 µM (inactive) | > 100 µM (inactive) | > 100 µM (inactive) | > 100 µM (inactive) | > 100 µM (inactive) | > 100 µM (inactive) | > 100 µM (inactive) | > 100 µM (inactive) | – | > 100 µM (inactive) | 70.6 µM (inactive) | > 100 µM (inactive) | 78.5 µM (inactive) |
| CCc1nnc(S)n1/N=C\c1ccc(-c2ccccc2[N+](=O)[O-])o1 | 45.6 µM (inactive) | 49.4 µM (inactive) | 42.9 µM (inactive) | 42.1 µM (inactive) | 21.1 µM (inactive) | 35.6 µM (inactive) | 35.7 µM (inactive) | 39.7 µM (inactive) | 15.4 µM (inactive) | 17.6 µM (inactive) | 33.3 µM (inactive) | 44.8 µM (inactive) | 41.5 µM (inactive) | – | 12 µM (inactive) | 36.1 µM (inactive) | > 100 µM (inactive) | 43.9 µM (inactive) | 38.5 µM (inactive) | 52.5 µM (inactive) |
| Cc1c(C)c(S(=O)(=O)N(CCCCCON)OCCCN)c(C)c2c1OC(C)(C)CC2 | 16.7 µM (inactive) | 14.6 µM (inactive) | 13.4 µM (inactive) | – | 12.3 µM (inactive) | 5.74 µM (inactive) | 9.89 µM (inactive) | 7 µM (inactive) | 11.8 µM (inactive) | 14.3 µM (inactive) | 15.6 µM (inactive) | 7.5 µM (inactive) | 13.2 µM (inactive) | 16.5 µM (inactive) | 15.9 µM (inactive) | 14.5 µM (inactive) | 15.5 µM (inactive) | 5 µM (inactive) | 12.8 µM (inactive) | 16.4 µM (inactive) |
| COc1ccc(CNc2nc3ccccc3nc2C(=O)O)cc1 | 57.8 µM (inactive) | > 100 µM (inactive) | > 100 µM (inactive) | 83.4 µM (inactive) | 78.2 µM (inactive) | 95.7 µM (inactive) | > 100 µM (inactive) | > 100 µM (inactive) | > 100 µM (inactive) | > 100 µM (inactive) | > 100 µM (inactive) | – | > 100 µM (inactive) | > 100 µM (inactive) | 52.6 µM (inactive) | – | > 100 µM (inactive) | 65.3 µM (inactive) | 58.6 µM (inactive) | – |
| CN(Cc1cnc2nc(N)nc(N)c2n1)c1ccc(C(=O)NC(CO)CCCO)cc1 (configuration not stated) | > 100 µM (inactive) | > 100 µM (inactive) | – | > 100 µM (inactive) | > 100 µM (inactive) | > 100 µM (inactive) | > 100 µM (inactive) | > 100 µM (inactive) | > 100 µM (inactive) | > 100 µM (inactive) | > 100 µM (inactive) | – | > 100 µM (inactive) | > 100 µM (inactive) | > 100 µM (inactive) | > 100 µM (inactive) | > 100 µM (inactive) | > 100 µM (inactive) | > 100 µM (inactive) | > 100 µM (inactive) |
| O=C(O)c1cccc(S(=O)(=O)NN2C(=O)CSC2c2ccc(Cl)cc2Cl)c1 (configuration not stated) | 16 µM (inactive) | > 100 µM (inactive) | > 100 µM (inactive) | 9.75 µM (inactive) | 68.5 µM (inactive) | 12 µM (inactive) | 32.5 µM (inactive) | 34.5 µM (inactive) | 21.2 µM (inactive) | 24.7 µM (inactive) | 40.2 µM (inactive) | – | 94.2 µM (inactive) | 23.2 µM (inactive) | > 100 µM (inactive) | > 100 µM (inactive) | 49.5 µM (inactive) | > 100 µM (inactive) | 21.4 µM (inactive) | > 100 µM (inactive) |
| CCC(=O)NCC1CCCN2CCCCC12 (configuration not stated) | > 100 µM (inactive) | > 100 µM (inactive) | > 100 µM (inactive) | > 100 µM (inactive) | > 100 µM (inactive) | > 100 µM (inactive) | > 100 µM (inactive) | – | > 100 µM (inactive) | > 100 µM (inactive) | > 100 µM (inactive) | > 100 µM (inactive) | > 100 µM (inactive) | > 100 µM (inactive) | > 100 µM (inactive) | > 100 µM (inactive) | > 100 µM (inactive) | > 100 µM (inactive) | > 100 µM (inactive) | > 100 µM (inactive) |
